Measurements: US11110105B2, “Compounds, composition and uses thereof for treating cancer” (INSTITUT GUSTAVE ROUSSY, priority 2017, dated 2021)
Like-named read-outs stand apart in the source and are kept apart here.

How the values were obtained:
[1] = tested on: MCA205 globin-SL8-intron tumors; test: Tumor challenge, MCA205 globin-SL8-intron in immunodeficient Nu/Nu nude mice; assay type: in vivo, mouse; conditions: 18 mg/kg intraperitoneally
Experimental: (D) MCA205 globin-SL8-intron cells were inoculated subcutaneously on the […] mice flank. […] Tumor size was assessed every 3 to 4 days until day 27. Each line represents the tumor size in area (mm^2) of 6 mice in each group. Data are given as mean ±SEM. *p<0.05, **p<0.01 (ANOVA with Tukey's multiple comparison test comparing all groups). (E) MCA205 globin-SL8-intron cells were inoculated subcutaneously on the Nude nu/nu mice flank. […] Tumor size was assessed every 3 to 4 days until day 27. Each line represents the tumor size in area (mm^2) of 6 mice in each group. Data are given as mean ±SEM. (A) Experimental settings. Growth of (B) sarcoma MCA205 or (C) melanoma B16F10 cells that both stably express the globin-SL8-intron construct or (D) MCA205 Wild Type (WT) or (E) B16F10 WT cells that were subcutaneously inoculated on the flank of immunocompetent C57BL/6 mice injected intraperitoneally with 12 mg/kg or 18 mg/kg of isoginkgetin at days 5, 10 and 15 after inoculation. Tumor size was assessed every 3 to 4 days until reaching the established ethical endpoints. Each line represents the tumor size in area (mm^2) of 6 mice in each group. […] Area of the tumor is recorded every 3 to 4 days until day 27. […] Results are expressed as mean ±SEM. *[…] with Tukey's multiple comparison test comparing all groups).

[2] = tested on: MCA205 globin-SL8-intron (MCA205 GI) tumors; test: Tumor challenge, MCA205 globin-SL8-intron in immunocompetent C57BL/6 mice; assay type: in vivo, mouse; conditions: for tumor growth: C57BL/6
Experimental: (A) Experimental settings. (B) MCA205 globin-SL8-intron cells were inoculated subcutaneously on the mice flank. Five days and fifteen days later, 6 mg/kg, 12 mg/kg or 18 mg/kg isoginkgetin was injected intraperitoneally. Tumor size was assessed every 3 to 4 days until day 27. Each line represents the tumor size in area (mm^2) of 6 mice in each group. Data are given as mean ±SEM. *p<0.05 (ANOVA with Tukey's multiple comparison test comparing all groups).
(A) Experimental settings. Growth of (B) sarcoma MCA205 or (C) melanoma B16F10 cells that both stably express the globin-SL8-intron construct or (D) MCA205 Wild Type (WT) or (E) B16F10 WT cells that were subcutaneously inoculated on the flank of immunocompetent C57BL/6 mice injected intraperitoneally with 12 mg/kg or 18 mg/kg of isoginkgetin at days 5, 10 and 15 after inoculation. Tumor size was assessed every 3 to 4 days until reaching the established ethical endpoints. Each line represents the tumor size in area (mm^2) of 6 mice in each group. Size in area (mm^2) of (F) MCA205 globin-SL8-intron, (G) B16F10 globin-SL8-intron, (H) MCA205 WT or (I) B16F10 WT tumors subcutaneously inoculated on the flank of immunodeficient Nu/Nu Nude mice injected intraperitoneally with 18 mg/kg of isoginkgetin at days 5, 10 and 15 after inoculation. Data are presented at the day before the endpoints are reached.
Data are given as mean ±SEM. *P<0.05, **P<0.01, ***P<0.001 (unpaired student t test). […] Tumor size was assessed every 3 to 4 days until reaching the established ethical endpoints. Each line represents the tumor size in area (mm^2) of at least 6 mice in each group. Data are given as mean ±SEM. *p<0.05, **p<0.01 (ANOVA with Tukey's multiple comparison test comparing all groups). […] A Log-rank (Mantel-Cox) test was performed.
C57B1/6J female mice are obtained from Harlan. NU/NU nude mouse mice are obtained from Charles River. At 7 weeks old, mice are injected subcutaneously on the right flank with 5×10^4 MCA205-Globin-SL8-intron cells or with 4×10^4 B16F10-Globin-SL8-intron cells along with matrigel (VWR). […] Fifteen days after challenge mouse are again treated intreaperitonealy with the same drug. Area of the tumor is recorded every 3 to 4 days until day 27. All animal experiments were carried out in compliance with French and European laws and regulations. Results are expressed as mean ±SEM. *p<0.05, **P<0.01, ***P<0.001 (ANOVA with Tukey's multiple comparison test comparing all groups).

Water solubility = assay type: physicochemical
[3] = 18 mg/kg intraperitoneally, days 5, 10 and 15
[4] = 18 mg/kg intraperitoneally, days 5 and 15

SMILES | tumor growth ([1]; days 5, 10 and 15) | reduction of tumor growth at day 27 after challenge ([2]; 6 mg/kg intraperitoneally, days 5 and 15) | reduction of tumor size at day 27 after challenge ([2]; 12 mg/kg intraperitoneally, days 5, 10 and 15) | reduction of tumor size at day 27 after challenge [2, 3] | reduction of tumor growth at day 27 after challenge [2, 4] | survivors 100 days after tumor inoculation ([2]; 18 mg/kg intraperitoneally, Kaplan Meier) | water solubility (Water solubility) | tumor growth ([1]; days 5 and 15) | survival (Kaplan Meier) ([2]; 18 mg/kg intraperitoneally) | tumor growth [2, 3] | tumor growth [2, 4] | water solubility (Water solubility; listed as M2P2)
COc1ccc(-c2cc(=O)c3c(O)cc(O)c(-c4cc(-c5cc(=O)c6c(O)cc(O)cc6o5)ccc4OC)c3o2)cc1 [Isoginkgetin, isoginkgetin] | No effect | 50% | over 50% | over 50% | 50% | around 30% | insoluble in water | – | – | – | – | –
COc1ccc(-c2cc(=O)c3c(OC)cc(OP(=O)([O-])[O-])c(-c4cc(-c5cc(=O)c6c(OC)cc(OP(=O)([O-])[O-])cc6o5)ccc4OC)c3o2)cc1.[Na+].[Na+].[Na+].[Na+] [IM2P2] | – | – | – | – | – | – | able to be dissolved in water | any of the compounds used have an effect on the tumor growth | does not impact survival | no impact | did not demonstrate any tumor growth decrease | considerably higher than that of the parent compound isoginkgetin
